This passage reports K and fold change (FC) results from ChEMBL document CHEMBL1140110, “Hydration of drug-DNA complexes: greater water uptake for adriamycin compared to daunomycin” (J Med Chem, 2008).

Experiment [1] deals with DNA. As to the kind of experiment: Binding affinity to calf thymus DNA in BPES buffer assessed as binding constant K/10^5 by fluorescence titration. Conditions: Bos taurus. Format: nucleic-acid assay.
For experiment [2], the system named is DNA. As to the kind of experiment: Binding affinity to calf thymus DNA at 1 uM in BPES buffer by fluorescence titration relative to daunomycin. The format is nucleic-acid assay. Conditions: Bos taurus.

For `COc1cccc2c1C(=O)c1c(O)c3c(c(O)c1C2=O)C[C@@](O)(C(C)=O)C[C@@H]3O[C@H]1C[C@H](N)[C@H](O)[C@H](C)O1`, the K in the experiment with DNA [1] stood at 230000 M⁻¹.

As for `COc1cccc2c1C(=O)c1c(O)c3c(c(O)c1C2=O)C[C@@](O)(C(=O)CO)C[C@@H]3O[C@H]1C[C@H](N)[C@H](O)[C@H](C)O1`, the fold change (FC) with DNA [2] came out at 2. The K with DNA [1] was determined as 605000 M⁻¹.
